Laboratory results published in ChEMBL document CHEMBL4507261, “Data for DCP probe A-192621” (2021).

How the values were obtained:
[1] = target: Death-associated protein kinase 3 (Homo sapiens) (UniProt O43293); details: Compound concentration 1000.0 nM
[2] = target: Ephrin type-A receptor 5 (Homo sapiens) (UniProt P54756); details: Compound concentration 1000.0 nM
[3] = target: Proto-oncogene tyrosine-protein kinase receptor Ret (Homo sapiens) (UniProt P07949); details: Compound concentration 1000.0 nM
[4] = target: Myosin light chain kinase, smooth muscle (Homo sapiens) (UniProt Q15746); details: Compound concentration 1000.0 nM
[5] = target: Aurora kinase C (Homo sapiens) (UniProt Q9UQB9); details: Compound concentration 1000.0 nM
[6] = target: Serine/threonine-protein kinase tousled-like 1 (Homo sapiens) (UniProt Q9UKI8); details: Compound concentration 1000.0 nM
[7] = target: Ephrin type-B receptor 4 (Homo sapiens) (UniProt P54760); details: Compound concentration 1000.0 nM
[8] = target: Dual specificity tyrosine-phosphorylation-regulated kinase 2 (Homo sapiens) (UniProt Q92630); details: Compound concentration 1000.0 nM
[9] = test system: ALK tyrosine kinase receptor (Homo sapiens), Q9UM73 [L1196M]; details: Compound concentration 1000.0 nM
[10] = target: Tyrosine-protein kinase Fgr (Homo sapiens) (UniProt P09769); details: Compound concentration 1000.0 nM
Sequence of Tyrosine-protein kinase Fgr (Homo sapiens) (P09769 2-529 limits assumed): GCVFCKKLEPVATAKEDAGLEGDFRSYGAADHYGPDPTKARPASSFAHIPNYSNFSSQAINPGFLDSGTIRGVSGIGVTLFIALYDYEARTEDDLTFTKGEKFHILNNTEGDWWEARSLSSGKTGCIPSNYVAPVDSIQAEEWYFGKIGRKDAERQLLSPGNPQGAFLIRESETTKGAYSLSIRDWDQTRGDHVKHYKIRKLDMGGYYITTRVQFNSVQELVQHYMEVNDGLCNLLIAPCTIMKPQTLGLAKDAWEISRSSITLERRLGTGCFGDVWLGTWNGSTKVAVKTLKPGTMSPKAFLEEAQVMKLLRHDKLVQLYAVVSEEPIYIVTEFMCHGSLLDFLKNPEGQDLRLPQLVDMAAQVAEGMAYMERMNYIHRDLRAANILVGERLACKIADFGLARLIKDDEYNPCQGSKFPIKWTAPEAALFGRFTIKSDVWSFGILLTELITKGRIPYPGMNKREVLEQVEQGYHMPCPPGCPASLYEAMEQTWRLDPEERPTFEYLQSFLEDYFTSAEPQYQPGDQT

[11] = target: Mitogen-activated protein kinase kinase kinase 12 (Homo sapiens) (UniProt Q12852); details: Compound concentration 1000.0 nM
[12] = target: Bone morphogenetic protein receptor type-2 (Homo sapiens) (UniProt Q13873); details: Compound concentration 1000.0 nM
[13] = target: Serine/threonine-protein kinase MRCK beta (Homo sapiens) (UniProt Q9Y5S2); details: Compound concentration 1000.0 nM
[14] = target: Muscarinic acetylcholine receptor M3 (Homo sapiens) (UniProt P20309); assay: M3 (h) Eurofins-Cerep binding assay; design: ligand concentration 0.2 nM; details: filed as antagonist, Compound concentration 10.0 uM
Sequence of Muscarinic acetylcholine receptor M3 (Homo sapiens) (P20309 whole entry, looked up): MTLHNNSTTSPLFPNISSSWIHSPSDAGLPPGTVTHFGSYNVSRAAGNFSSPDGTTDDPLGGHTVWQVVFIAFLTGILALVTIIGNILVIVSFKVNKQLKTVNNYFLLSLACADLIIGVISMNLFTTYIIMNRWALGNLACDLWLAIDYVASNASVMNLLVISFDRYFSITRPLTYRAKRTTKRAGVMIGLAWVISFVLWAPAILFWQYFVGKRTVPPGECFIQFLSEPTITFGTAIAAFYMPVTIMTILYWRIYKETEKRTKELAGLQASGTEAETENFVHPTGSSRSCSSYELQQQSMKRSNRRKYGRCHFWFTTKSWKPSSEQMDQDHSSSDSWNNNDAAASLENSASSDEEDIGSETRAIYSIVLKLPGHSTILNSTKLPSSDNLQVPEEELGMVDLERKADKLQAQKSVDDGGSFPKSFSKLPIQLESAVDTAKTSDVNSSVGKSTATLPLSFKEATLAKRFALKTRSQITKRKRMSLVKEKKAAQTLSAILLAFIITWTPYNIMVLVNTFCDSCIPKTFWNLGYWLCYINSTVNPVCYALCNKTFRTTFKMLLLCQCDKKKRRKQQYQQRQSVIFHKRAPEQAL

[15] = target: Serine/threonine-protein kinase PAK 1 (Homo sapiens) (UniProt Q13153); details: Compound concentration 1000.0 nM
Sequence of Serine/threonine-protein kinase PAK 1 (Homo sapiens) (Q13153 whole entry): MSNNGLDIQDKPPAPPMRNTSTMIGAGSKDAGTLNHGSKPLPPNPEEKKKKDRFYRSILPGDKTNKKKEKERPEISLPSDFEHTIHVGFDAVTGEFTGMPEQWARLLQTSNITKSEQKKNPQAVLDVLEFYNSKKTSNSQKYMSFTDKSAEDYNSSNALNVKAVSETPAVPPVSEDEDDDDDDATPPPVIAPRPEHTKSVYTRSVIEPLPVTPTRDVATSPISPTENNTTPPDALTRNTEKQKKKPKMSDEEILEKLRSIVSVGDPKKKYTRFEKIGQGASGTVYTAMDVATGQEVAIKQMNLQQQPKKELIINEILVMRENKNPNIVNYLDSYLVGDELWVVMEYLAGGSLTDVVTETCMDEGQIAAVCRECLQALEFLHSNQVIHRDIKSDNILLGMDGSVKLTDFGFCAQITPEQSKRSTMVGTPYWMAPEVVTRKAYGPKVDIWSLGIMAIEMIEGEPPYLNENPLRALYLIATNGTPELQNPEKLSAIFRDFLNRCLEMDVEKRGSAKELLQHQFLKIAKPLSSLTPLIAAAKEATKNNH

[16] = target: STE20-like serine/threonine-protein kinase (Homo sapiens) (UniProt Q9H2G2); details: Compound concentration 1000.0 nM
[17] = target: Peroxisome proliferator-activated receptor gamma (Homo sapiens) (UniProt P37231); assay: PPARgamma (h) Eurofins-Cerep binding assay; design: ligand concentration 5 nM; details: filed as agonist, Compound concentration 10.0 uM
[18] = target: Tyrosine-protein kinase Lck (Homo sapiens) (UniProt P06239); details: Compound concentration 1000.0 nM
Sequence of Tyrosine-protein kinase Lck (Homo sapiens) (P06239 2-509 limits assumed): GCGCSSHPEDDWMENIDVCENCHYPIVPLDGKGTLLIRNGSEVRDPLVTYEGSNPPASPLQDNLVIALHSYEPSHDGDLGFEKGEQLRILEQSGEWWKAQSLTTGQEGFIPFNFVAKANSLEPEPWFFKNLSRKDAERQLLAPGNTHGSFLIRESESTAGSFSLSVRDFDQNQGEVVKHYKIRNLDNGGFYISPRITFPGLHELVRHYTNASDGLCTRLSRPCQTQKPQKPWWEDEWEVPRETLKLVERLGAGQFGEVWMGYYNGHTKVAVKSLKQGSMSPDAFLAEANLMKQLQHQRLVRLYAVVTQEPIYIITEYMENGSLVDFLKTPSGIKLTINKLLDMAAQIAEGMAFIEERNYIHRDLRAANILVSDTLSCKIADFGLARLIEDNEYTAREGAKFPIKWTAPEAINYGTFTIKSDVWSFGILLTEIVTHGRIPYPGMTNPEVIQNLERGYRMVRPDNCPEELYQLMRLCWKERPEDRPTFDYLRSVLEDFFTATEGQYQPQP

[19] = test system: Phosphatidylinositol 4,5-bisphosphate 3-kinase catalytic subunit alpha isoform (Homo sapiens), P42336 [I800L]; details: Compound concentration 1000.0 nM
[20] = target: Macrophage-stimulating protein receptor (Homo sapiens) (UniProt Q04912); details: Compound concentration 1000.0 nM
Sequence of Macrophage-stimulating protein receptor (Homo sapiens) (Q04912 25-304 limits assumed): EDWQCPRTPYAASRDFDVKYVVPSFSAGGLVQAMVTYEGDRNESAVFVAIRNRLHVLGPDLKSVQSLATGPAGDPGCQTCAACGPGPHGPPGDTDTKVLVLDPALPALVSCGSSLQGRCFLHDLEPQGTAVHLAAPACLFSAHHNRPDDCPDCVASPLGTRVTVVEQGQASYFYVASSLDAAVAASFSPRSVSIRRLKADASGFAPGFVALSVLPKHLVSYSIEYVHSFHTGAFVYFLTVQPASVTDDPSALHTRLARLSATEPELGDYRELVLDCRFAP
Sequence of Macrophage-stimulating protein receptor (Homo sapiens) (Q04912 310-1400 limits assumed): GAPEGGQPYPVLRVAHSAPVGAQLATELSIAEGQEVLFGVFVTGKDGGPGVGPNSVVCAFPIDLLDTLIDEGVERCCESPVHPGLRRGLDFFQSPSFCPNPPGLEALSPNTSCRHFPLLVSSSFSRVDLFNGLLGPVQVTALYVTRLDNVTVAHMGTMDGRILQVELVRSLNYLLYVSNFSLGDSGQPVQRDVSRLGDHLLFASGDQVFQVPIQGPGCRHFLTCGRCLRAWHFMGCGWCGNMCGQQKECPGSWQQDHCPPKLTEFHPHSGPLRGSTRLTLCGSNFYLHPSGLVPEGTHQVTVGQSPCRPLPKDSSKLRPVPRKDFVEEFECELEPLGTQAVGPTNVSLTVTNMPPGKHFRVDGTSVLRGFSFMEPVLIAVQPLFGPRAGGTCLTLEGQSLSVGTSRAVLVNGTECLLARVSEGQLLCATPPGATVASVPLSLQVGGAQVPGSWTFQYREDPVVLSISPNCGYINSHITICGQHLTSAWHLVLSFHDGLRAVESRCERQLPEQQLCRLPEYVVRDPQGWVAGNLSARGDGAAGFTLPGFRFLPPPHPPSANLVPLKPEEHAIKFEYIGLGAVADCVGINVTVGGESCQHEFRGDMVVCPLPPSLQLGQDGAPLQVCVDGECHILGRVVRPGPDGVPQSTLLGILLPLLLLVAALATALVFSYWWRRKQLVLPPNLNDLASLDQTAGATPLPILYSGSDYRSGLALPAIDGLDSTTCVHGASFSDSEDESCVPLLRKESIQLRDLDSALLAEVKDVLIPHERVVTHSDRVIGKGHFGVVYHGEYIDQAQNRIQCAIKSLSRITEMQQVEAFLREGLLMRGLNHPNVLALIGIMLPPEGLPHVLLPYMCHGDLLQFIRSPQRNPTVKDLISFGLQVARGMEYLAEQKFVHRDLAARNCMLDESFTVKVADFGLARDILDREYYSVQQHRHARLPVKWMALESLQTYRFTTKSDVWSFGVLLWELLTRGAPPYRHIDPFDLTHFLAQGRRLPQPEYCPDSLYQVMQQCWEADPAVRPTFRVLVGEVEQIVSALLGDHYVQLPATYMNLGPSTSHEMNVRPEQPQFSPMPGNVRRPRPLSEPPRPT

[21] = target: Tyrosine-protein kinase Fer (Homo sapiens) (UniProt P16591); details: Compound concentration 1000.0 nM
[22] = target: Substance-P receptor (Homo sapiens) (UniProt P25103); assay: NK1 (h) Eurofins-Cerep binding assay; design: ligand concentration 0.05 nM; details: filed as agonist, Compound concentration 10.0 uM
[23] = target: Mitogen-activated protein kinase 4 (Homo sapiens) (UniProt P31152); details: Compound concentration 1000.0 nM
Sequence of Mitogen-activated protein kinase 4 (Homo sapiens) (P31152 whole entry): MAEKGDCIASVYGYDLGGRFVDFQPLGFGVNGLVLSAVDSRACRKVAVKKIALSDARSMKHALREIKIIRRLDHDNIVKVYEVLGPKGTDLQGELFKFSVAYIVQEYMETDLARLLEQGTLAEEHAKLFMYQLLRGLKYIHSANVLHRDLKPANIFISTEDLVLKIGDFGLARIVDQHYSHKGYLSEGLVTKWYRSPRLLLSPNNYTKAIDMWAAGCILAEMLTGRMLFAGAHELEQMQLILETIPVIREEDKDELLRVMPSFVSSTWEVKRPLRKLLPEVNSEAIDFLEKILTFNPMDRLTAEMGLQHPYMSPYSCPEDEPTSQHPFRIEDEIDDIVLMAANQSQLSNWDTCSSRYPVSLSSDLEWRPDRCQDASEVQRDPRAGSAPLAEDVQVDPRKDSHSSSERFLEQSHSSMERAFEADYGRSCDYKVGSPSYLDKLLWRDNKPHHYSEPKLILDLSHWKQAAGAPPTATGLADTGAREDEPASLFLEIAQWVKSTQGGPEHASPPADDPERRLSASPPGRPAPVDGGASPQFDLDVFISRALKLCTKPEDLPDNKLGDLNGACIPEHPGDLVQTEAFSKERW

[24] = target: Calcium-dependent protein kinase 1 (Plasmodium falciparum) (UniProt P62344); details: Compound concentration 1000.0 nM
[25] = target: G protein-coupled receptor kinase 3 (Homo sapiens) (UniProt P35626); details: Compound concentration 1000.0 nM
[26] = target: Sodium-dependent serotonin transporter (Homo sapiens) (UniProt P31645); assay: 5-HT transporter (h) Eurofins-Cerep binding assay; design: ligand concentration 2 nM; details: filed as antagonist, Compound concentration 10.0 uM
[27] = test system: Receptor-type tyrosine-protein kinase FLT3 (Homo sapiens), P36888 [K663Q]; details: Compound concentration 1000.0 nM
[28] = target: Membrane-associated tyrosine- and threonine-specific cdc2-inhibitory kinase (Homo sapiens) (UniProt Q99640); details: Compound concentration 1000.0 nM
[29] = target: Type-2 angiotensin II receptor (Homo sapiens) (UniProt P50052); assay: AT2 (h) Eurofins-Cerep binding assay; details: filed as agonist, Compound concentration 10.0 uM
Sequence of Type-2 angiotensin II receptor (Homo sapiens) (P50052 whole entry): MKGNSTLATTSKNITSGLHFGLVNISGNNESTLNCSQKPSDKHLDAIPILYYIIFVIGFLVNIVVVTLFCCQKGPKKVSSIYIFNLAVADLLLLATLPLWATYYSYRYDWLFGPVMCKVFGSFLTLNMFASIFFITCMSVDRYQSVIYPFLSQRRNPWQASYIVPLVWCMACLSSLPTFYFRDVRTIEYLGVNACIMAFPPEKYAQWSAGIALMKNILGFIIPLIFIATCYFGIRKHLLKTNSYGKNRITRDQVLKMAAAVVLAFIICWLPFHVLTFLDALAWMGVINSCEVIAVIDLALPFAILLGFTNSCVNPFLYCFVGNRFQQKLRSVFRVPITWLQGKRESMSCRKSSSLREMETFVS

[30] = target: Dual specificity mitogen-activated protein kinase kinase 5 (Homo sapiens) (UniProt Q13163); details: Compound concentration 1000.0 nM
Sequence of Dual specificity mitogen-activated protein kinase kinase 5 (Homo sapiens) (Q13163 whole entry): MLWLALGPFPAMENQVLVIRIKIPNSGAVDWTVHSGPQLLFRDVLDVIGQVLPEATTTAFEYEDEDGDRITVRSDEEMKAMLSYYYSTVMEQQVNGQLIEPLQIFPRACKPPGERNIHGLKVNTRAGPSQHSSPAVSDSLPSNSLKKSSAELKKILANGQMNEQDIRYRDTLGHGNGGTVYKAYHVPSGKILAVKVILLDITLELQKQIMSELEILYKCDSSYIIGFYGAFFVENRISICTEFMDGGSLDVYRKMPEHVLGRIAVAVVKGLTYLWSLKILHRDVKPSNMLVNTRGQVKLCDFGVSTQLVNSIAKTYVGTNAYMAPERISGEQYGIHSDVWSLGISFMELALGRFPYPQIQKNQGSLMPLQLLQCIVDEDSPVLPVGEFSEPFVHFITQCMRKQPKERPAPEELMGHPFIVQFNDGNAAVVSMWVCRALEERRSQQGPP

[31] = target: T1, 5-hydroxytryptamine receptor 2C (Homo sapiens) (UniProt P28335); assay: 5-HT2C (h) Eurofins-Cerep binding assay; design: ligand concentration 1 nM; details: filed as antagonist, Compound concentration 10.0 uM
T1 sequence (whole entry): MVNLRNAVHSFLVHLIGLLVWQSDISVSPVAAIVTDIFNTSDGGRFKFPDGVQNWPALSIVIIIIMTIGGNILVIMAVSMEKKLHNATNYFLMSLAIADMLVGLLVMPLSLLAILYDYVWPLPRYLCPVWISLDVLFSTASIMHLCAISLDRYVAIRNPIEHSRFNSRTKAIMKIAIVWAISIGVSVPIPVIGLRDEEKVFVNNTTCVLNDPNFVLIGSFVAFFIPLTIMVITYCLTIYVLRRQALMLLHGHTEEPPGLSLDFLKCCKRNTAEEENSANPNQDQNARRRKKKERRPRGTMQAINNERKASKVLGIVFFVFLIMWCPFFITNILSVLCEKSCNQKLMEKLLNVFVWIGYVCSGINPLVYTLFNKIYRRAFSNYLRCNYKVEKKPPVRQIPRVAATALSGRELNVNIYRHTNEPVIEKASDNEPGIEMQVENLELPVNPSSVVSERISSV

[32] = test system: Phosphatidylinositol 4,5-bisphosphate 3-kinase catalytic subunit alpha isoform (Homo sapiens), P42336 [Q546K]; details: Compound concentration 1000.0 nM
[33] = target: G protein-coupled receptor kinase 4 (Homo sapiens) (UniProt P32298); details: Compound concentration 1000.0 nM
[34] = target: Tyrosine-protein kinase Fyn (Homo sapiens) (UniProt P06241); details: Compound concentration 1000.0 nM
[35] = test system: Receptor-type tyrosine-protein kinase FLT3 (Homo sapiens), P36888 [D835H]; details: Compound concentration 1000.0 nM
[36] = target: Mitogen-activated protein kinase kinase kinase 19 (Homo sapiens) (UniProt Q56UN5); details: Compound concentration 1000.0 nM
[37] = target: Protein kinase C eta type (Homo sapiens) (UniProt P24723); details: Compound concentration 1000.0 nM
[38] = target: Inhibitor of nuclear factor kappa-B kinase subunit alpha (Homo sapiens) (UniProt O15111); details: Compound concentration 1000.0 nM
[39] = target: Cyclin-dependent kinase 13 (Homo sapiens) (UniProt Q14004); details: Compound concentration 1000.0 nM

With `CCCOc1ccc([C@H]2[C@H](C(=O)O)[C@@H](c3ccc4c(c3)OCO4)CN2CC(=O)Nc2c(CC)cccc2CC)cc1` [A-192621] the residual activity [1] was 89%, the residual activity [2] was 100% and the residual activity [3] was 86%. For the same compound, the residual activity [4] was 85%, the residual activity [5] was 91% and the residual activity [6] was 74%. For the same compound, the residual activity [7] was 100%, the residual activity [8] was 74% and the residual activity [9] was 91%. It also gave a residual activity [10] of 98%, a residual activity [11] of 52% and a residual activity [12] of 53%. The residual activity [13] was 87%, the % Inhibition of Control Specific Binding (Mean n=2) [14] was -11.3% and the residual activity [15] was 89%. The residual activity [16] was 100%, the % Inhibition of Control Specific Binding (Mean n=2) [17] was 40.3% and the residual activity [18] was 100%. For the same compound, the residual activity [19] was 81%, the residual activity [20] was 86% and the residual activity [21] was 100%. For the same compound, the % Inhibition of Control Specific Binding (Mean n=2) [22] was 36.7%, the residual activity [23] was 93% and the residual activity [24] was 88%. The residual activity [25] was 73%, the % Inhibition of Control Specific Binding (Mean n=2) [26] was -7.7% and the residual activity [27] was 100%. The residual activity [28] was 74%, the % Inhibition of Control Specific Binding (Mean n=2) [29] was 2.5% and the residual activity [30] was 63%. The % Inhibition of Control Specific Binding (Mean n=2) [31] was 1.2%, the residual activity [32] was 69% and the residual activity [33] was 100%. It also gave a residual activity [34] of 100%, a residual activity [35] of 92% and a residual activity [36] of 77%. It also gave a residual activity [37] of 100%, a residual activity [38] of 77% and a residual activity [39] of 45%.

With `CCCOc1ccc([C@@H]2[C@@H](C(=O)O)[C@H](c3ccc4c(c3)OCO4)CN2CC(=O)Nc2c(CC)cccc2CC)cc1` [A-1806262] the residual activity [1] was 79%, the residual activity [2] was 100% and the residual activity [3] was 97%. The residual activity [4] was 100%, the residual activity [5] was 94% and the residual activity [6] was 77%. It also gave a residual activity [7] of 96%, a residual activity [8] of 92% and a residual activity [9] of 78%. The residual activity [10] was 93%, the residual activity [11] was 100% and the residual activity [12] was 69%. It also gave a residual activity [13] of 97%, a % Inhibition of Control Specific Binding (Mean n=2) [14] of -0.6% and a residual activity [15] of 98%. It also gave a residual activity [16] of 100%, a % Inhibition of Control Specific Binding (Mean n=2) [17] of 67% and a residual activity [18] of 100%. The residual activity [19] was 71%, the residual activity [20] was 91% and the residual activity [21] was 100%. For the same compound, the % Inhibition of Control Specific Binding (Mean n=2) [22] was 32.2%, the residual activity [23] was 95% and the residual activity [24] was 64%. For the same compound, the residual activity [25] was 100%, the % Inhibition of Control Specific Binding (Mean n=2) [26] was 5.2% and the residual activity [27] was 100%. The residual activity [28] was 100%, the % Inhibition of Control Specific Binding (Mean n=2) [29] was 20.8% and the residual activity [30] was 100%. The % Inhibition of Control Specific Binding [31] was 0%, the residual activity [32] was 80% and the residual activity [33] was 100%. The residual activity [34] was 87%, the residual activity [35] was 100% and the residual activity [36] was 93%. The residual activity [37] was 100%, the residual activity [38] was 86% and the residual activity [39] was 81%.
